The source of these data is US6534524B1, “Indazole compounds and pharmaceutical compositions for inhibiting protein kinases, and methods for their use” (Agouron Pharmaceuticals, Inc., priority 1999, dated 2003).

One data set addresses T1, human CHK1 (FL-CHK1) (Homo sapiens, UniProt O14757).
T1 construct: C-terminally His-tagged full-length human CHK1 (FL-CHK1); made in house; host or cells: baculovirus/insect cell system
T1 sequence (O14757 1-476): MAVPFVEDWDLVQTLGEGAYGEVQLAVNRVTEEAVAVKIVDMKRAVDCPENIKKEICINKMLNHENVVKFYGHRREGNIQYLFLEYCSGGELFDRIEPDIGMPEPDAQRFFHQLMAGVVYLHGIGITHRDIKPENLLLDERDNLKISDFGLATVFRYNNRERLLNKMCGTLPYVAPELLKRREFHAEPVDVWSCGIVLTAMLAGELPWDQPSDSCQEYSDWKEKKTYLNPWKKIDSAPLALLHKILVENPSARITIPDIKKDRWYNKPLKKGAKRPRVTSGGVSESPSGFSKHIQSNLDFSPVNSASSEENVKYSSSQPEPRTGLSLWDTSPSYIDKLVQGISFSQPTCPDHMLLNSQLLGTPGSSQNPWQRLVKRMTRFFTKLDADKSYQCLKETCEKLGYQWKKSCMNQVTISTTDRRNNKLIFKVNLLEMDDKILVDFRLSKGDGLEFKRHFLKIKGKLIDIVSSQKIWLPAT
Kind of data set: CHK1 assay (coupled spectrophotometric, Syntide-2). The note with it: for pKi: read-out: CHK-1 Ki; for CHK-1 @ 20 μM: Table 4, compound at 20 μM. It counts as biochemical. An excerpt:
CHK1 Construct for Assay: C-terminally His-tagged full-length human CHK1 (FL-CHK1) was expressed using the baculovirus/insect cell system. […] The protein was purified by conventional chromatographic techniques.
The production of ADP from ATP that accompanies phosphoryl transfer to the synthetic substrate peptide Syntide-2 ([…]) was coupled to oxidation of NADH using phosphoenolpyruvate (PEP) through the actions of pyruvate kinase (PK) and lactic dehydrogenase (LDH). The oxidation of NADH was monitored by following the decrease of absorbance at 340 nm (ε340=6.22 cm^−1 mM^−1) using a HP8452 spectrophotometer. […] Assays were initiated with 10 nM of FL-CHK1. Ki values were determined by measuring initial enzyme activity in the presence of varying concentrations of test compounds. The data were analyzed using Enzyme Kinetic and Kaleidagraph software.

Data set [1] in a line: Determination of inhibitor concentration in mouse plasma after intraperitoneal and oral dosing. It counts as in vivo. The method, boiled down:
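Mice dosed intraperitoneally or orally; blood taken by ocular bleed at 0.5, 1 and 4 h and by intracardiac puncture at 7 h. Plasma extracted with ethyl acetate after internal standard and NaOH addition, analysed by HPLC or LC-MS against a mouse-plasma standard curve.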

A short description of data set [2]: Human liver microsome (HLM) assay. The following applies: human liver microsomes, 5 μM test compound. It counts as in vitro ADME. An outline of the steps:
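Compound metabolism in human liver microsomes measured in triplicate. Samples at 0 and 2 h centrifuged at 14000 g for 10 min and analysed by LC-MS.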
(In general: Liver microsomes are vesicles of endoplasmic reticulum, rich in cytochrome P450 enzymes.)

In data set [3] the target is unphosphorylated VEGF-R2Δ50 (FLVK) (Homo sapiens, UniProt P35968, DEL940-989/E990V). Kind of data set: VEGF-R2 coupled spectrophotometric assay, unphosphorylated VEGF-R2Δ50 (FLVK). The following applies: FLVK Ki, Table 1.
unphosphorylated VEGF-R2Δ50 (FLVK), sequence (P35968 with tags, fused parts or gaps DEL940-989/E990V limits assumed): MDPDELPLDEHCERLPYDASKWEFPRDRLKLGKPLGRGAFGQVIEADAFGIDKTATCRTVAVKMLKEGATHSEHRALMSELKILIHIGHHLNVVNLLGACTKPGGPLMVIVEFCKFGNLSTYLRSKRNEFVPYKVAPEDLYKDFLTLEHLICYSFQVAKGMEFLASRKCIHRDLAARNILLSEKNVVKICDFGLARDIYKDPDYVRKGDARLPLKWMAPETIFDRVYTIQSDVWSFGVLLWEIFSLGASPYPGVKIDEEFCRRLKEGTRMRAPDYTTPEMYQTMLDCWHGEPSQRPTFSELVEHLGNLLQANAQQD
Setting [4] is: IP, 25 mg/kg, vehicle PEG400:H2O pH 2.3 60:40.
[5] abbreviates: PO, 50 mg/kg, vehicle PEG400:H2O pH 2.3 60:40.
Setting [6] is: female, IP, 25 mg/kg, vehicle PEG400:H2O pH 2.3 60:40, read-out: Cmin (7 hr conc.).
The mark [7] stands for this setting: female, PO, 50 mg/kg, vehicle PEG400:H2O pH 2.3 60:40, read-out: Cmin (7 hr conc.).
[8] abbreviates: female, IP, 25 mg/kg, vehicle PEG400:H2O pH 2.3 30:70.
[9] abbreviates: female, IP, 25 mg/kg, vehicle PEG400:H2O pH 2.3 30:70, read-out: Cmin (7 hr conc.).
Setting [10] is: IP, 25 mg/kg, vehicle PEG400:H2O pH 2.3 30:70.
[11] abbreviates: PO, 50 mg/kg, vehicle PEG400:H2O pH 2.3 30:70.
Setting [12] is: female, PO, 50 mg/kg, vehicle PEG400:H2O pH 2.3 30:70, read-out: Cmin (7 hr conc.).

pKi: −log10 of the molar value. Like-named read-outs stand apart in the source and are kept apart here.

Turning to `C(=C\c1n[nH]c2cc(-c3ccncc3)ccc12)/c1nc2ccccc2[nH]1` [Example 29(q), 6-Pyrid-4-yl-3-E-[2-(4-benzimidazol-2-yl)ethenyl]-1H-indazole], the pKi (commonly the Ki on a negative log10 scale, so that one unit is a factor of ten) on human CHK1 (FL-CHK1) (Table 3) was 4.96.
Still for that read-out and setting: then `COc1ccc(-c2ccc3c(/C=C/c4ccccc4)n[nH]c3c2)cn1` [Example 27(k), 6-(2-Methoxypyridin-5-yl)-3-E-styryl-1H-indazole], with 4.62.
`O=C(c1ccccc1)c1ccc2c(/C=C/c3ccccc3)n[nH]c2c1` [Example 17, Phenyl-(3-styryl-1H-indazol-6-yl)-methanone]: the pKi at human CHK1 (FL-CHK1) (Table 1) is 6.27.
With `Oc1ccc(-c2ccc3c(/C=C/c4ccccc4)n[nH]c3c2)cc1O` [Example 28(d), 6-(3,4-Dihydroxyphenyl)-3-E-styryl-1H-indazole], the pKi at human CHK1 (FL-CHK1) (Table 3) was 7.74.
For `O=C(Nc1cc[nH]n1)c1ccc2c(-c3nc4ccccc4[nH]3)n[nH]c2c1`, the “CHK-1 @ 20 μM” value on human CHK1 (FL-CHK1) is 52.4.
`C(=C\c1n[nH]c2cc(-c3ccncc3)ccc12)/c1cccc(-c2ccccc2)c1` [Example 29(n), 6-Pyrid-4-yl-3-E-[2-(biphenyl-3-yl)ethenyl]-1H-indazole]: at human CHK1 (FL-CHK1) (Table 3), the pKi was 4.80.
On the same count and under the same terms, to `c1ccc2[nH]c(-c3n[nH]c4cc(-c5ccncc5)ccc34)nc2c1` [Example 55, 3-1H-Benzoimidazol-2-yl-6-pyridin-4-yl-1H-indazole] belongs 5.00.
With `COC(=O)c1cc(NC(=O)c2ccc3c(-c4nc5ccccc5[nH]4)n[nH]c3c2)ccc1O` [drawing 1260], the “CHK-1 @ 20 μM” value at human CHK1 (FL-CHK1) stood at 31.6.
With `Oc1ccc(-c2ccc3c(/C=C/c4ccccc4)n[nH]c3c2)cc1` [Example 28(b)], the pKi on human CHK1 (FL-CHK1) (Table 3) was 7.84.
Consider `C(=C\c1n[nH]c2cc(-c3ccncc3)ccc12)/c1ccc2ccccc2c1` [Example 29(k), 6-Pyrid-4-yl-3-E-[2-(naphthalen-2-yl)ethenyl]-1H-indazole], for which the pKi at human CHK1 (FL-CHK1) (Table 3) is 5.89.
With `O=C(Nc1cccc(C(=O)c2ccc3c(-c4nc5ccccc5[nH]4)n[nH]c3c2)c1)c1ccccc1` [Example 42(b), 6-(3-Benzamidobenzoyl)-3-(1H-benzoimidazol-2-yl)-1H-indazole], the AUClast in data set [1] (setting [4]) came to 3207 ng·h/mL; in data set [1] (setting [5]) it was 4747 ng·h/mL. The “plasma half-life (T1/2)” value in data set [1] (setting [4]) and in data set [1] (setting [5]) was 3.0 h each time. The concentration at 7 h in data set [1] (setting [6]) was 211 ng/mL; in data set [1] (setting [7]) it was 46 ng/mL. Moreover, in data set [2], the “% remain (HLM, 2 h)” value turned out to be 81%. Besides, in data set [3], the pKi was 9.46.
With `O=C(Nc1ccc(O)cc1)c1ccc2c(-c3nc4cc(Cl)ccc4[nH]3)n[nH]c2c1` [Example 54(l), 3-(5-Chloro-1H-benzoimidazol-2-yl)-N-(4-hydroxyphenyl)-1H-indazole-6-carboxamide], the pKi at human CHK1 (FL-CHK1) (Table 3) is 6.00.
Take `O=C(NCc1cccc(F)c1)c1ccccc1Sc1ccc2c(/C=C/c3ccccn3)n[nH]c2c1` [Example 35(ff)]: in data set [1] (setting [8]), the AUC(0-t) (in general, exposure summed from dosing to a finite time, without extrapolation to infinity) was > 6300 ng·h/mL. Also, the Cmax – broadly, the highest concentration seen after dosing – in data set [1] (female, IP, 25 mg/kg, vehicle PEG400:H2O pH 2.3 30:70, read-out: Cmax) was > 4000 ng/mL. In addition, the concentration at 7 h in data set [1] (setting [9]) was determined as 72 ng/mL. Also, the “% remain (HLM, 2 h)” value in data set [2] is 31%. This compound also had a pKi in data set [3] of 9.96.
For the compound `O=C(Nc1ccc(O)cc1)c1ccc2c(-c3nc4cc(Cl)c(Cl)cc4[nH]3)n[nH]c2c1` [Example 54(b), 3-(5,6-Dichloro-1H-benzoimidazol-2-yl)-N-(4-hydroxyphenyl)-1H-indazole-6-carboxamide], on human CHK1 (FL-CHK1) (Table 3), the pKi was 5.51.
`O=C(NCC(F)(F)F)c1ccccc1Sc1ccc2c(/C=C/c3ccccn3)n[nH]c2c1` [Example 33(f), 6-[2-(2,2,2-Trifluoroethylcarbamoyl)phenylsulfanyl]-3-E-[2-(pyridin-2-yl)ethenyl]-1H-indazole]: the AUClast in data set [1] (setting [10]) was 1887 ng·h/mL; in data set [1] (setting [11]), 1436 ng·h/mL. Moreover, the “plasma half-life (T1/2)” value is 2.4 h in data set [1] (setting [10]) and 0.7 h in data set [1] (setting [11]). The concentration at 7 h in data set [1] (setting [9]) stood at 6 ng/mL; in data set [1] (setting [12]) it was 3 ng/mL. Also, the “% remain (HLM, 2 h)” value in data set [2] is 31%. Moreover, the pKi in data set [3] is 8.10.
For the compound `Fc1cccc(F)c1/C=C/c1n[nH]c2cc(-c3ccncc3)ccc12` [Example 29(o), 6-Pyrid-4-yl-3-E-[2-(2,6-difluorophenyl)ethenyl]-1H-indazole], on human CHK1 (FL-CHK1) (Table 3), the pKi was 4.34.
On to `CC(=O)c1ccc(C(=O)Nc2cccc(C(=O)c3ccc4c(/C=C/c5ccccn5)n[nH]c4c3)c2)s1` [Example 41(e), 6-[3-((5-Acetylthien-2-yl)carboxamido)benzoyl]-3-E-[2-(pyridin-2-yl)ethenyl]-1H-indazole], for which, in data set [1] (setting [4]), the AUClast came to 4900 ng·h/mL, the highest concentration (Cmax) was 1154 ng/mL and the “plasma half-life (T1/2)” value was found to be 1.6 h. In data set [1] (setting [5]), the AUClast amounted to 302 ng·h/mL, the Cmax came out at 113 ng/mL and the “plasma half-life (T1/2)” value was determined as 1.6 h. Moreover, in data set [1] (setting [6]), the concentration at 7 h turned out to be 301 ng/mL. The concentration at 7 h in data set [1] (setting [7]) was found to be 7 ng/mL. Moreover, the “% remain (HLM, 2 h)” value in data set [2] was 22%. Besides, in data set [3], the pKi is 9.66.
With `O=C(c1cccc(NC(=O)c2ccc(Cl)s2)c1)c1ccc2c(/C=C/c3ccccn3)n[nH]c2c1` [Example 41(o), 6-[3-((5-Chlorothien-2-yl)carboxamido)benzoyl]-3-E-[2-(pyridin-2-yl)ethenyl]-1H-indazole], in data set [1] (setting [11]), the AUClast was 14717 ng·h/mL and the “plasma half-life (T1/2)” value is 1.7 h. In data set [1] (setting [8]), the AUC(0-t) was > 33800 ng·h/mL. For the same compound, the concentration at 7 h in data set [1] (setting [9]) was > 5000 ng/mL. Also, the concentration at 7 h in data set [1] (setting [12]) came out at 427 ng/mL. The “% remain (HLM, 2 h)” value in data set [2] worked out at 94%. The compound further had a pKi in data set [3] of 10.30.
On to `Cc1cc(C(=O)Nc2cccc(C(=O)c3ccc4c(/C=C/c5ccccn5)n[nH]c4c3)c2)on1` [Example 41(m), 6-[3-((3-Methylisoxazol-5-yl)carboxamido)benzoyl]-3-E-[2-(pyridin-2-yl)ethenyl]-1H-indazole], for which, in data set [1] (setting [10]), the AUClast worked out at 1864 ng·h/mL and the “plasma half-life (T1/2)” value came out at 2.3 h. Also, in data set [1] (setting [11]), the AUClast came to 9 ng·h/mL, the Cmax came out at 5 ng/mL and the “plasma half-life (T1/2)” value is “blq”. Moreover, the “% remain (HLM, 2 h)” value in data set [2] is reported as 0%. The compound also gave a pKi in data set [3] of 9.12.
Consider `O=C(NC1CC1)c1ccccc1Sc1ccc2c(/C=C/c3ccccn3)n[nH]c2c1` [Example 33(e), 6-[2-(Cyclopropylcarbamoyl)phenylsulfanyl]-3-E-[2-(pyridin-2-yl)ethenyl]-1H-1H-indazole], for which the AUClast in data set [1] (setting [10]) is 14323 ng·h/mL; in data set [1] (setting [11]) it was 13290 ng·h/mL. Also, the entries for the “plasma half-life (T1/2)” value in data set [1] (setting [10]) and in data set [1] (setting [11]) were 1.0 h and 0.7 h, respectively. Moreover, the values for the concentration at 7 h in data set [1] (setting [9]) and in data set [1] (setting [12]) were 94 ng/mL and 12 ng/mL, respectively. The “% remain (HLM, 2 h)” value in data set [2] is 54%. This compound also showed a pKi in data set [3] of 8.77.
For the compound `O=C(Nc1ccccc1)c1ccccc1Sc1ccc2c(/C=C/c3ccccn3)n[nH]c2c1` [Example 33(c), 6-[2-(Phenylcarbamoyl)phenylsulfanyl]-3-E-[2-(pyridin-2-yl)ethenyl]-1H-indazole], in data set [1] (setting [10]), the AUClast stood at 697 ng·h/mL, the Cmax was 505 ng/mL and the “plasma half-life (T1/2)” value was found to be 1.2 h. Moreover, in data set [1] (setting [11]), the AUClast came to 183 ng·h/mL, the Cmax was 94 ng/mL and the “plasma half-life (T1/2)” value is 3.0 h. Also, the concentration at 7 h in data set [1] (setting [9]) is 7 ng/mL. In addition, in data set [1] (setting [12]), the concentration at 7 h worked out at 5 ng/mL. Moreover, in data set [2], the “% remain (HLM, 2 h)” value is given as 16%. This compound gave a pKi in data set [3] of 9.55.
